Counter-ions that a name gives are not always drawn.
Assays:
[1] = target: T1, D2 receptors in striatum (Rattus norvegicus, UniProt P61169); test: Binding of intravenously injected radioligand in rat striatum, alone and co-injected with NPA (Examples 2 and 3); format: in vivo, Sprague-Dawley rats
T1 construct: from tissue; host or cells: striatum of Sprague-Dawley rats (in vivo labelling)
Excerpt: In describing and validating the method of the present invention using rats instead of humans, there are certain considerations that should be noted. For example, each rat is not imaged, but is guillotined, and the striatum removed in order to measure the radioactivity in DPM/mg tissue, where DPM represents disintegrations per minute.
Sprague-Dawley rats (275-300 g) were restrained in transparent polystyrene cages. The tail vein was warmed in warm water.

[2] = target: D1 receptor (Homo sapiens, UniProt P21728); conditions: D1^High state; read-out: dissociation constant for the high-affinity state of the D1 receptor; cited from earlier work
D1 receptor, sequence (P21728 whole entry): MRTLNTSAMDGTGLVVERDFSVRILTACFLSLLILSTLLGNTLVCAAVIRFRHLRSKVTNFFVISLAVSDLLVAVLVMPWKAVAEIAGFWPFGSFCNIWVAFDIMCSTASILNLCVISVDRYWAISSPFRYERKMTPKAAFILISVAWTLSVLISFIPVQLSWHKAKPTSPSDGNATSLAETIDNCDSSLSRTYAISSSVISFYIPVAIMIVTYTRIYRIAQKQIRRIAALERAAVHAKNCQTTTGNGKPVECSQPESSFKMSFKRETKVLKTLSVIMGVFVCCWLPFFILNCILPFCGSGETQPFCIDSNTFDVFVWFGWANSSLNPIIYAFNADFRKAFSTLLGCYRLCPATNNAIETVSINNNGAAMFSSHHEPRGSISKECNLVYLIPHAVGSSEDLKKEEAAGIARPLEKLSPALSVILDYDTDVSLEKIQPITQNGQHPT

[3] = rat striatum, radioligand co-injected i.v. with NPA 25 μg/kg
[4] = 25 μg/Kg NPA co-injected i.v., rats, n=6

T1 sequence (P61169 whole entry): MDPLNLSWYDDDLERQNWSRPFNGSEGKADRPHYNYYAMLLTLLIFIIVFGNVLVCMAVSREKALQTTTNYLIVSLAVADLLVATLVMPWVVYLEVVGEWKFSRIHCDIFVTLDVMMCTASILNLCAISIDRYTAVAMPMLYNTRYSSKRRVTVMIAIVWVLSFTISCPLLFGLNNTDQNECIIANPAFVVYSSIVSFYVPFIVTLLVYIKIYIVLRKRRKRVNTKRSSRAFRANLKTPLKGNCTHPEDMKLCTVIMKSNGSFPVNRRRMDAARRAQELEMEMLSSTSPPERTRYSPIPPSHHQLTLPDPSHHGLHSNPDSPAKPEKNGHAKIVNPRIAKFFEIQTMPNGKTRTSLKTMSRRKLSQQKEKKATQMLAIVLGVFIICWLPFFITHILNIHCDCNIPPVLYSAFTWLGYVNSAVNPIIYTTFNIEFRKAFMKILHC

## CCN1CCC[C@H]1CNC(=O)c1c(O)c(Cl)cc(Cl)c1OC (racemic) [[^3H]Raclopride]
[1]; rat striatum, 30 min after i.v. 0.1 nmol radioligand, no NPA
  Control: 2.8 pmol/g
[1]; rat striatum, 30 min after i.v. 0.1 nmol radioligand, no NPA, n=6
  Control DPM/mg (total binding in striatum): 37.9 DPM/mg
[1]; rat striatum, NPA 25 μg/kg co-injected
  pmol/g Displaced by NPA: 1.09 pmol/g
[1]; [3]
  With NPA: 1.71 pmol/g
  With NPA DPM/mg: 23.13 DPM/mg

## CCCN1CCOC2c3cc(O)ccc3CCC21 (single isomer, unassigned; (+)) [(+)PHNO, (+)-4-propyl-9-hydroxy-2,3,4a,5,6,10b-hexahydro-4H-naphth[1,2b][1,4]oxazine HCl]
[2]
  Kd: 80 nM

## CCCN1CCc2cccc3c2[C@H]1Cc1ccc(O)c(O)c1-3 [NPA, N-propyl-norapomorphine]
[1]; 25 μg/Kg NPA co-injected i.v., rats, mean ±s.e., n=6, P=0.0004 vs (+)PHNO
  binding of radioactive raclopride, level of the control value: 61%±2.9 % of the control value
[1]; [4]
  binding of radioactive (+)PHNO, level of the control value: 46 % of the control value
  inhibition of the binding of radioactive raclopride: 39%
[1]; 25 μg/Kg NPA co-injected i.v., rats, n=6, representative experiment
  inhibition of the binding of radioactive (+)PHNO: 54%
[1]; normal rats, NPA 25 μg/kg i.v. co-injected with radioactive (+)PHNO
  inhibition of the D2^High receptors: 53%

Source: patent US20080181848A1 (priority 2004, published 2008)
